The results in this text go back to patent US7002010B2, “Process for the preparation of morpholinones as light stabilizers” (Ciba Specialty Chemicals Corporation, priority 2000, dated 2006).

For the compound `CC(N)(CO)COC(C)(C)C` (stereo not shown) [Compound 301, 2-amino-3-tert-butoxy-2-methyl-propan-1-ol], the melting point (usually the temperature of the solid-liquid transition) lay in the range of 30 to 35 °C.
